Structures can show the parent of a compound that is named as a salt.
Assays:
[1] = biological target: T1, human recombinant serotonin 5-HT2A receptor (Homo sapiens, UniProt P28223); assay: Binding affinity for serotonin 5-HT2A receptor ([3H]Ketanserin); details: CHO-K1 expressed receptor, 1 nM [3H]Ketanserin
T1 construct: purchased PerkinElmer Life and Analytical Sciences, USA; host or cells: CHO-K1
Protocol: Receptor binding affinities of the compounds for serotonin receptors were measured by the method described in the literature [Park W K et al., Pharmacol Biochem Behav. 2005, 82(2), 361-372].
For serotonin 5-HT2A binding, an aliquot of human recombinant serotonin 5-HT2A receptor (PerkinElmer Life and Analytical Sciences, USA) expressed in CHO-K1 cells (5 ug/well) and 1 nM [^3H]Ketanserin (PerkinElmer) were used in the presence of mianserin (20 uM) as nonspecific. The reaction mixture was incubated for 60 min at 27 using 50 mM Tris-HCl (pH 7.4) buffer containing 4 mM CaCl2 and 0.1% ascorbic acid, and harvested through filtermate A glass fiber filter (Wallac, Finland) presoaked in 0.5% polyethyleneimine (PEI) by microbeta filtermate-96 harvester (PerkinElmer) to terminate the reaction, and then washed with ice cold 50 mM Tris-HCl buffer solution (pH 7.4). The filter was then covered with MeltiLex, sealed in a sample bag, dried in an oven. The radioactivity retained in the filter was finally counted using MicroBeta Plus (Wallac).
(§1) The binding affinity (IC50) of a compound for the receptor was calculated by computerized nonlinear regression analysis (GraphPad Prism Program, San Diego, USA) using 7-8 varied concentrations of the compound run in duplicate tubes.

[2] = biological target: T2, human recombinant 5-HT2C receptor (Homo sapiens, UniProt P28335); assay: Binding affinity for serotonin 5-HT2C receptor ([3H]Mesulergine); details: CHO-K1 membranes, 1.3 nM [3H]Mesulergine
T2 construct: purchased PerkinElmer
T2 sequence (P28335 33-458): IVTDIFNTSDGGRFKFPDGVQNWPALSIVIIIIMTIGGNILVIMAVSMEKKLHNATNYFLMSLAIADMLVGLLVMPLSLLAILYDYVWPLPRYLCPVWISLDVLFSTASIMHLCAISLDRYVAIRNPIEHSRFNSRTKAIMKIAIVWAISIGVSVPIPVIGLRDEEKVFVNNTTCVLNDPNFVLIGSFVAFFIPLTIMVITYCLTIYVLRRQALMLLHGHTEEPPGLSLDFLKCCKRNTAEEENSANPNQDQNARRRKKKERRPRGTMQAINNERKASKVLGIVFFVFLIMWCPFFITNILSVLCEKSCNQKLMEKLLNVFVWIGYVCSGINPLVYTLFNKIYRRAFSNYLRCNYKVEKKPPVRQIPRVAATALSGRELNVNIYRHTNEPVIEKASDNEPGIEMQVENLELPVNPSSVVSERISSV
Protocol: Receptor binding affinities of the compounds for serotonin receptors were measured by the method described in the literature [Park W K et al., Pharmacol Biochem Behav.
as §1
Nonspecific binding was determined using 100 uM mianserin. The incubations were performed for 60 min at 27, and these were terminated by rapid filtration through filtermate. A glass fiber filter presoaked in 0.5% PEI.

[3] = biological target: T3, human serotonin transporter (Homo sapiens, UniProt P31645); assay: Binding affinity for serotonin transporter ([3H]Imipramine); details: HEK-293 membranes, 2 nM [3H]Imipramine
T3 construct: purchased PerkinElmer; host or cells: HEK-293
Protocol: For serotonin transporter binding assays, a reaction mixture with a final volume of 0.25 ml was prepared by mixing a test compound, human serotonin transporter membrane expressed in HEK-293 cells (PerkinElmer, 5 ug/well), [^3H]Imipramine (PerkinElmer, 2 nM) and 50 mM Tris-HCl (pH 7.4) buffer containing 120 mM NaCl and 5 mM KCl. The reaction mixture was incubated for 30 min at 27, and harvested through filtermate. A glass fiber filter presoaked in 0.5% PEI with ice cold 50 mM Tris-HCl buffer (pH 7.4) containing 0.9% NaCl.

T3 sequence (P31645 whole entry): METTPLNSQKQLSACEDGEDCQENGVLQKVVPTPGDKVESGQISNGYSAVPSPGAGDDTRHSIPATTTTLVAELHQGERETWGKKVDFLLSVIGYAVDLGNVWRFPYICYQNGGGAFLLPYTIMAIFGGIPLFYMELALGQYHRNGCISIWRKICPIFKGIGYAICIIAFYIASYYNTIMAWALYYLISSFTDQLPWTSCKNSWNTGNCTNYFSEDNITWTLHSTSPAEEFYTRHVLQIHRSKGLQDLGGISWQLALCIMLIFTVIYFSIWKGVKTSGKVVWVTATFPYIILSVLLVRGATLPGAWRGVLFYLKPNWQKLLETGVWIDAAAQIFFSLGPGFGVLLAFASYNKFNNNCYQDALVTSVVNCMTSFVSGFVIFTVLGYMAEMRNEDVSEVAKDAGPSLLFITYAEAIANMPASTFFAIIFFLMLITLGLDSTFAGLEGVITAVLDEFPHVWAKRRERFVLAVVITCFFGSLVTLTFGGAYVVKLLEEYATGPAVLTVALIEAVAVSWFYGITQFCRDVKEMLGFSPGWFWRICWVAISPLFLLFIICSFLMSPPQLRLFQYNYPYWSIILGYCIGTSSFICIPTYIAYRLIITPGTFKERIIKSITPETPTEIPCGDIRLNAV
T1 sequence (P28223 whole entry): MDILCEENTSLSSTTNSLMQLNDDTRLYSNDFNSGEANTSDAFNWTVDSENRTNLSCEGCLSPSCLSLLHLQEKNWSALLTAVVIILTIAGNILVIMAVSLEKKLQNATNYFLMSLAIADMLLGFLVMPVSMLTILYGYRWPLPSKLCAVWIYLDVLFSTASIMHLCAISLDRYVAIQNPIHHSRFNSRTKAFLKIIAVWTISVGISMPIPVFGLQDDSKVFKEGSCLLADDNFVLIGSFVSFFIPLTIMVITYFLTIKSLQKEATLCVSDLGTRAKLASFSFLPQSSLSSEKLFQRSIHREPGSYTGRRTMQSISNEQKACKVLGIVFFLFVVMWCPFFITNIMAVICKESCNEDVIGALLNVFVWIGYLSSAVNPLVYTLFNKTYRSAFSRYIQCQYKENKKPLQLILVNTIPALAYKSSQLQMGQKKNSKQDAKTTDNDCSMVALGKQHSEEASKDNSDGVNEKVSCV

| Structure (SMILES) | IC50 [1] | IC50 [2] | IC50 [3] |
| --- | --- | --- | --- |
| CCn1c(-c2ccc(OC)cc2)cc(C(=O)NCCCN2CCN(c3cccc(Cl)c3Cl)CC2)c1C [Example 75, N-(3-(4-(2,3-dichlorophenyl)piperazin-1-yl)propyl)-1-ethyl-5-(4-methoxyphenyl)-2-methyl-1H-pyrrole-3-carboxamide hydrochloride] | 141 nM | 35 nM | 100 nM |
| Cc1c(Cl)cccc1N1CCN(CCCNC(=O)c2cc(C)n(-c3ccccc3)c2C)CC1 [Example 176, N-(3-(4-(3-chloro-2-methylphenyl)piperazin-1-yl)propyl)-2,5-dimethyl-1-phenyl-1H-pyrrole-3-carboxamide] | 170 nM | 127 nM | 15 nM |
| CCCn1c(-c2ccncc2)cc(C(=O)NCCCN2CCN(c3cccc(Cl)c3Cl)CC2)c1C [Example 107, N-(3-(4-(2,3-dichlorophenyl)piperazin-1-yl)propyl)-2-methyl-1-propyl-5-(pyridin-4-yl)-1H-pyrrole-3-carboxamide] | 34 nM | 420 nM | 78 nM |
| Cc1[nH]c(-c2ccccc2)cc1C(=O)NCCCN1CCN(c2cccc(Cl)c2)CC1 [Example 23, N-(3-(4-(3-chlorophenyl)piperazin-1-yl)propyl)-2-methyl-5-phenyl-1H-pyrrole-3-carboxamide] | 245 nM | 280 nM | 92 nM |
| Cc1c(C(=O)NCCCN2CCN(c3cccc(Cl)c3Cl)CC2)cc(-c2ccccc2)n1N1CCCCC1 [Example 13, N-(3-(4-(2,3-dichlorophenyl)piperazin-1-yl)propyl)-2-methyl-5-phenyl-1-(piperidin-1-yl)-1H-pyrrole-3-carboxamide] | 67.1 nM | 795 nM | 298 nM |
| Cc1[nH]c(-c2ccccn2)cc1C(=O)NCCCN1CCN(c2cccc(Cl)c2Cl)CC1 [Example 91, N-(3-(4-(2,3-dichlorophenyl)piperazin-1-yl)propyl)-2-methyl-5-(pyridin-2-yl)-1H-pyrrole-3-carboxamide dihydrochloride] | 21 nM | 211 nM | 28 nM |
| Cc1cccc(N2CCN(CCCNC(=O)c3cc(-c4ccccc4)n(C)c3C)CC2)c1C [Example 3, N-(3-(4-(2,3-dimethylphenyl)piperazin-1-yl)propyl)-1,2-dimethyl-5-phenyl-1H-pyrrole-3-carboxamide] | 57 nM | 133 nM | 11.8 nM |
| Cc1c(C(=O)NCCCN2CCN(c3cccc(Cl)c3Cl)CC2)cc(-c2ccncc2)n1C [Example 106, N-(3-(4-(2,3-dichlorophenyl)piperazin-1-yl)propyl)-1,2-dimethyl-5-(pyridin-4-yl)-1H-pyrrole-3-carboxamide] | 39 nM | 175 nM | 85 nM |
| CCCn1c(-c2ccccc2)cc(C(=O)NCCCCN2CCN(c3cccc(Cl)c3Cl)CC2)c1C [Example 34, N-(4-(4-(2,3-dichlorophenyl)piperazin-1-yl)butyl)-2-methyl-5-phenyl-1-propyl-1H-pyrrole-3-carboxamide hydrochloride] | 104 nM | 20.9 nM | 76 nM |
| COc1ccc(-c2cc(C(=O)NCCCN3CCN(c4cccc(Cl)c4Cl)CC3)c(C)n2C)cc1 [Example 74, N-(3-(4-(2,3-dichlorophenyl)piperazin-1-yl)propyl)-5-(4-methoxyphenyl)-1,2-dimethyl-1H-pyrrole-3-carboxamide hydrochloride] | 108 nM | 101 nM | 76.2 nM |
| CCCn1c(-c2ccccc2)cc(C(=O)NCCCN2CCN(c3ccccc3OC)CC2)c1C [Example 84, N-(3-(4-(2-Methoxyphenyl)piperazin-1-yl)propyl)-2-methyl-5-phenyl-1-propyl-1H-pyrrole-3-carboxamide] | 953 nM | 1410 nM | 1080 nM |
| CCCn1c(-c2ccccc2)cc(C(=O)NCCCN2CCN(c3cccc(Cl)c3Cl)CC2)c1Cl [Example 116] | 69 nM | 136 nM | 1090 nM |
| Cc1c(C(=O)NCCCN2CCN(c3cccc(Cl)c3Cl)CC2)cc(-c2ccccc2)n1-c1ccc(F)cc1 [Example 16, N-(3-(4-(2,3-dichlorophenyl)piperazin-1-yl)propyl)-1-(4-fluorophenyl)-2-methyl-5-phenyl-1H-pyrrole-3-carboxamide] | 4.1 nM | 466 nM | 266 nM |
| CCCn1c(-c2cccc(OC)c2)cc(C(=O)NCCCN2CCN(c3cccc(Cl)c3Cl)CC2)c1C [Example 82, N-(3-(4-(2,3-dichlorophenyl)piperazin-1-yl)propyl)-5-(3-methoxyphenyl)-2-methyl-1-propyl-1H-pyrrole-3-carboxamide hydrochloride] | 138 nM | 43 nM | 196 nM |
| CCn1c(-c2ccccc2)cc(C(=O)NCCCN2CCN(c3cccc(Cl)c3)CC2)c1C [Example 4, N-(3-(4-(3-chlorophenyl)piperazin-1-yl)propyl)-1-ethyl-2-methyl-5-phenyl-1H-pyrrole-3-carboxamide] | 92 nM | 192 nM | 25.8 nM |
| CCCn1c(-c2ccccc2)cc(C(=O)NCCCN2CCN(c3cccc(Cl)c3Cl)CC2)c1C [Example 12, N-(3-(4-(2,3-dichlorophenyl)piperazin-1-yl)propyl)-2-methyl-5-phenyl-1-propyl-1H-pyrrole-3-carboxamide] | 324 nM | 628 nM | 420 nM |
| Cc1[nH]c(-c2ccccc2)c(C)c1C(=O)NCCCN1CCN(c2cccc(Cl)c2Cl)CC1 [Example 77, N-(3-(4-(2,3-dichlorophenyl)piperazin-1-yl)propyl)-2,4-dimethyl-5-phenyl-1H-pyrrole-3-carboxamide hydrochloride] | 39 nM | 16 nM | 36 nM |
| Cc1[nH]c(-c2ccc(Cl)cc2)cc1C(=O)NCCCN1CCN(c2cccc(Cl)c2Cl)CC1 [Example 45, 5-(4-chlorophenyl)-N-(3-(4-(2,3-dichlorophenyl)piperazin-1-yl)propyl)-2-methyl-1H-pyrrole-3-carboxamide hydrochloride] | 105 nM | 106 nM | 56 nM |
| Cc1c(C(=O)NCCN2CCN(c3cccc(Cl)c3Cl)CC2)cc(-c2ccc(Cl)cc2)n1C [Example 68, 5-(4-chlorophenyl)-N-(2-(4-(2,3-dichlorophenyl)piperazin-1-yl)ethyl)-1,2-dimethyl-1H-pyrrole-3-carboxamide hydrochloride] | 292 nM | 24 nM | 176 nM |
| C=CCCc1cc(C(=O)NCCCN2CCN(c3cccc(Cl)c3Cl)CC2)c(C)n1C [Example 136, 5-(but-3-enyl)-N-(3-(4-(2,3-dichlorophenyl)piperazin-1-yl)propyl)-1,2-dimethyl-1H-pyrrole-3-carboxamide] | 108 nM | 173 nM | 347 nM |
| CCCn1c(-c2ccccc2)cc(C(=O)N(C)CCCN2CCN(c3cccc(Cl)c3Cl)CC2)c1C [Example 31, N-(3-(4-(2,3-dichlorophenyl)piperazin-1-yl)propyl)-N,2-dimethyl-5-phenyl-1-propyl-1H-pyrrole-3-carboxamide hydrochloride] | 33.2 nM | 20.7 nM | 102 nM |
| CCn1c(C)c(C(=O)NCCCN2CCN(c3cccc(Cl)c3Cl)CC2)c(C)c1-c1ccccc1 [Example 80, N-(3-(4-(2,3-dichlorophenyl)piperazin-1-yl)propyl)-1-ethyl-2,4-dimethyl-5-phenyl-1H-pyrrole-3-carboxamide hydrochloride] | 47 nM | 42 nM | 97 nM |
